The values that follow come from US5128051A, “Method for the control of biofouling” (Union Carbide Chemicals & Plastics Technology Corporation, priority 1991, dated 1992).

For test [1], the system named is Aerobic Bacterial Biofilms. Kind of test: Log reduction of sessile microorganisms in aerobic biofilm (Example 2, Procedure A). The test is classed as cell-based, predominantly Pseudomonas species. To be noted: Pseudomonas, 7.4 represents complete kill. Here is the method: (§1) Approximately 20 ml of sterile Bacto TGE broth (Difco Labs) were placed in a sterile Petri dish (15×100 mm). To this media, 10 ml of a 24 hour culture of the aerobic organisms to be tested were added. Sterile, stainless steel penicylinders (10 mm O.D., 7 mm I.D., 10 mm long) were then placed in the inoculated media. The cylinders were placed in the dish either on-end or on-side. The Petri dish containing the cylinders was then incubated at 37° C. for 48 hours. At that time, cylinders were individually removed aseptically using forceps, blotted on sterile filter paper, and washed three times by dipping in sterile saline solution. This procedure was used to ensure that only organisms that were firmly attached in the biofilm were tested.
(§2) Two biofilm-coated cylinders were then carefully dropped into separate 10 ml test tubes containing biocide solutions of varying concentrations. After one hour and four hour contact times, a cylinder was aseptically transferred to a fresh tube of TGE broth and vortexed for 30 seconds to remove all sessile organisms. The resulting broth suspension was then serially diluted and plated using TGE agar for enumeration. Plates were incubated for 48 hours at 37° C. before counting.
(§3) To minimize error, all biocide concentration/contact time points reported below were tested in duplicate and the results averaged. Results are reported as log reduction of microorganisms compared to control cylinders treated in the same manner except that no biocide was employed.
Respective samples of the five compounds were tested against the sessile microorganisms embedded in biofilms. The biofilm was comprised of a variety of microorganisms, but contained predominantly Pseudomonas species cultivated using Procedure A. The number of organisms were counted after one hour and four hours of contact.

Test [2] concerns S. aureus. The following applies: planktonic; cited from earlier work.
Test [3] relates to K. pneum. The following applies: planktonic; cited from earlier work.
Test [4] deals with P. aerug. To be noted: planktonic; cited from earlier work.
Test [5] deals with P. vulg. The following applies: planktonic; cited from earlier work.
Test [6] concerns C. albic. The following applies: planktonic; cited from earlier work.
The subject of test [7] is biofilm deposits. The following applies: dynamic laboratory reactors, waterflood pipeline conditions; Eagar et al.; cited from earlier work.
The test system of test [8] is Sessile Anaerobic Bacterial Biofilms (SRB). Kind of test: Log reduction of sessile sulfate-reducing bacteria in biofilm on mild steel penicylinders (Example 3, Procedure B). The test is classed as cell-based. The following applies: for log reduction at 100 ppm / log reduction at 250 ppm: 4 represents complete kill; for concentration required to achieve the same level of effectiveness as OPA: SRB biofilm, compared with OPA 10 ppm, 4 hours. Here is the method: SRB-containing media were prepared as follows:
14.5 g of Bacto Sulfate API Broth (Difco Labs) and 2.0 g Bacto Agar (Difco Labs) were added to 1000 ml distilled water. The solution was heated and stirred until all components were dissolved. A 1% solution of sodium thioglycollate in distilled water was also prepared. Both solutions were then autoclaved at 121° C. for 30 minutes. After cooling, 5 g of the sodium thioglycollate solution was added to the media mixture.
Mild steel penicylinders (10 mm O.D., 7 mm I.D., 10 mm long) were cleaned by soaking for 10 minutes in 0.5% hydrochloric acid. Cylinders were then rinsed three times with distilled water and dried before use.
A 4 oz screw-capped bottle was purged with argon to remove oxygen, capped and then autoclaved. After cooling, 100 ml of sterile SRB media was added to this bottle. Cleaned penicylinders were then added along with 10 ml of a five day old SRB culture. All operations were conducted under a constant stream of argon to minimize oxygen levels. The bottle was then incubated for 7-14 days (depending on the SRB used) at 37° C. At that time, cylinders were individually removed aseptically using forceps and blotted on sterile filter paper.
Two biofilm-coated cylinders were then carefully dropped into separate 10 ml test tubes of deaerated biocide solutions of varying concentrations. All of the biocide and control solutions contained 30 ppm of a non-ionic nonyl phenol ethoxylate surfactant (TERGITOL® NP-4, Union Carbide Chemicals and Plastics Company Inc., Danbury, CT). After one hour and four hour contact times, a cylinder was removed, blotted on sterile filter paper, and placed into a commercially available SRB vial (C&S Laboratories, Tulsa, OK). The vial was then sonicated (Bransonic Model 12) for 30 seconds to remove sessile organisms. The resulting solution was serially diluted into additional SRB vials for enumeration. Vials were grown for 28 days at 37° C. before reading. Blackening of the vials was used as an indication of growth.
as §3
A SRB culture was obtained from a water-flooded oil well in Alaska. The bacteria were then cultivated on the walls of the steel penicylinders using Procedure B described above. Respective samples were then contacted with glutaraldehyde, formaldehyde or OPA for one and four hours with the following results: […]

The test system of test [9] is Aerobic Bacterial Biofilms (oil field isolate). Kind of test: Log reduction of sessile aerobic bacteria in biofilm on stainless steel penicylinders (Example 1, Procedure A). The test is classed as cell-based, predominantly Pseudomonas species. The following applies: Pseudomonas; for log reduction at 10 ppm / log reduction at 25 ppm / log reduction at 50 ppm: 5.1 represents complete kill. Here is the method:
as §1, §2, §3
An oil field isolate of aerobic bacteria was utilized in all aerobic biofilm experiments. This culture was taken from a water-flooded oil well in Texas and was tentatively identified as containing predominantly Pseudomonas species. The biofilms were developed following above Procedure A. Respective samples were treated with various concentrations of the biocides listed below and the number of bacteria were counted after one hour and four hours of contact.

In test [10] the test system is sessile microorganisms. To be noted: Pope et al.; cited from earlier work.
Where [11] appears, read: 1 hr contact, read-out: log reduction after 1 hr.
The mark [12] stands for this setting: 4 hr contact, read-out: log reduction after 4 hr.
The mark [13] stands for this setting: 1 h, read-out: log reduction after 1 hr.
Where [14] appears, read: 4 h, read-out: log reduction after 4 hr.

Where two headings read alike, the source gives them in different places.

As to `COc1cccc(C=O)c1O` [OVA, ortho-vanillin], the log reduction at 50 ppm in test [1] (setting [11]) and in test [1] (setting [12]) was 0 each time. Further, the log reduction at 100 ppm in test [1] (setting [11]) and in test [1] (setting [12]) was 0 in each case. Moreover, the log reduction at 200 ppm in test [1] (setting [11]) and in [1] (setting [12]) was 0.3 each time. In addition, the MIC in test [2] is 0.5 mMole %; in test [3], 0.25 mMole %; in test [4], 0.5 mMole %; in test [5] it was 0.25 mMole %; in test [6], 0.25 mMole %.

With `O=CCCCC=O` [GA, glutaraldehyde], in [7], the “removing biofilm deposits and controlling number of viable organisms” value was “effective in removing biofilm deposits and controlling the number of viable organisms”. For the same compound, the log reduction at 100 ppm in test [8] (setting [11]) was found to be 3. Moreover, the log reduction at 100 ppm in test [8] (setting [12]) was found to be 4. Further, the “concentration required to achieve the same level of effectiveness as OPA” value in test [8] is given as “Significantly higher concentrations”. Moreover, in [9] (setting [11]), the log reduction at 10 ppm worked out at 0.1, the log reduction at 25 ppm turned out to be 0.3 and the log reduction at 50 ppm came out at 5.1. For the same compound, in test [9] (setting [12]), the log reduction at 10 ppm was found to be 0.7, the log reduction at 25 ppm came out at 1.7 and the log reduction at 50 ppm amounted to 5.1.

With `C=O` [FA, formaldehyde], in test [10], the performance in tests result is reported as “performed well in one test but poorly in another test”. For the same compound, the log reduction at 100 ppm in test [8] (setting [11]) and in test [8] (setting [12]) was under 2 each time. The log reduction at 250 ppm in test [8] (setting [11]) was under 2; in [8] (setting [12]), 3; in test [9] (setting [13]), 2; in test [9] (setting [14]), 5.1. Besides, in test [8], the “concentration required to achieve the same level of effectiveness as OPA” value is given as “Significantly higher concentrations”. The log reduction at 500 ppm in [9] (setting [13]) worked out at 2.6; in test [9] (setting [14]), 5.1. Besides, the log reduction at 1000 ppm in [9] (setting [13]) and in [9] (setting [14]) was 5.1 each time.

Turning to `O=Cc1ccccc1O` [SA, salicylaldehyde], the log reduction at 50 ppm in test [1] (setting [11]) and in [1] (setting [12]) was 0 each time. Moreover, the log reduction at 100 ppm in test [1] (setting [11]) and in test [1] (setting [12]) was 0 throughout. For the same compound, the log reduction at 200 ppm in test [1] (setting [11]) and in test [1] (setting [12]) was 0.2 each time. In addition, the MIC in test [2], in [3], in test [4], in test [5] and in test [6] was 0.25 mMole % throughout.

Regarding `O=Cc1ccccc1C(=O)O` [CB, 2-carboxybenzaldehyde], the log reduction at 50 ppm in test [1] (setting [11]) and in [1] (setting [12]) was 0 in each case. The log reduction at 100 ppm in test [1] (setting [11]) was 0; in test [1] (setting [12]), 0.1. The log reduction at 200 ppm in test [1] (setting [11]) was 0.6; in test [1] (setting [12]), 0.5. Besides, the MIC is given as 0.5 mMole % in test [2]; 2.5 mMole % in [3]; 2.5 mMole % in test [4]; 1.0 mMole % in test [5]; 1.0 mMole % in [6].

In the case of `O=Cc1cccc(O)c1O` [DHB, 2,3-dihydroxybenzaldehyde], the log reduction at 50 ppm in [1] (setting [11]) and in test [1] (setting [12]) was 0 in each case. Also, the log reduction at 100 ppm was 0.5 in test [1] (setting [11]) and 0 in [1] (setting [12]). Moreover, the log reduction at 200 ppm stood at 1.1 in test [1] (setting [11]) and 0.2 in test [1] (setting [12]). Further, the MIC is 0.25 mMole % in test [2]; 0.05 mMole % in [3]; 0.25 mMole % in test [4]; 0.25 mMole % in test [5]; under 0.025 mMole % in [6].
